Test results published in publication PMC6561338 (Organic & biomolecular chemistry, 2018).
Read-outs that look alike come from different tables or passages of the source. Each block holds one compound with its values, some of them ahead of it.

Tests used:
recombinant human S1PR1 = recombinant human S1PR1 (Homo sapiens, UniProt P21453); assay: [32P]S1P competitive binding assay, S1PR1; conditions: for fold decrease of S1PR1 binding potency compared to 10a: ratio of IC50 values versus 10a
recombinant human S1PR3 = recombinant human S1PR3 (Homo sapiens, UniProt Q99500); assay: [32P]S1P competitive binding assay, S1PR3
recombinant human S1PR3, sequence (Q99500 whole entry): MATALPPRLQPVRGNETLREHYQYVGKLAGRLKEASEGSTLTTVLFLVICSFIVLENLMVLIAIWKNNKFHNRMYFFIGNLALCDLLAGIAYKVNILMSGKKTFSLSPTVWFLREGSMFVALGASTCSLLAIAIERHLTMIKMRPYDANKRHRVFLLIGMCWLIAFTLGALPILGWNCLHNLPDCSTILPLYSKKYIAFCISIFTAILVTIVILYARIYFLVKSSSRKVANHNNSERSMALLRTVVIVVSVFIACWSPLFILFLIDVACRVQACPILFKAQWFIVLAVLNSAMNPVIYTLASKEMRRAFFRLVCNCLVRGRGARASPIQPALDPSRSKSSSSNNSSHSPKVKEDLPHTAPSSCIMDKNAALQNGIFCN

recombinant human S1PR2 = recombinant human S1PR2 (Homo sapiens, UniProt O95136); assay: [32P]S1P competitive binding assay, S1PR2
recombinant human S1PR2, sequence (O95136 whole entry): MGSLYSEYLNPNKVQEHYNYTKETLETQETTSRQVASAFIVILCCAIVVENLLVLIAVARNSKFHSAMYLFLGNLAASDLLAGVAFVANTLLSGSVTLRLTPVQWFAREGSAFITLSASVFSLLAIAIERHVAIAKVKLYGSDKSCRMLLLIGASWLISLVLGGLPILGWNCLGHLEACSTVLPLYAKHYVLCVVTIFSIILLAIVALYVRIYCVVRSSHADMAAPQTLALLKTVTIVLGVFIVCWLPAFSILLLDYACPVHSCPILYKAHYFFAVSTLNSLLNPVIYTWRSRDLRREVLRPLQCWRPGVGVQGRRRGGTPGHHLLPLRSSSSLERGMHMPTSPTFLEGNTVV

recombinant human S1PR4 = target: T1, recombinant human S1PR4 (Homo sapiens, UniProt O95977); assay: [32P]S1P competitive binding assay, S1PR4; conditions: read-out: IC50 S1PR4; competition against [32P]S1P, recombinant human S1PR4 membranes; mean ± SD
T1 sequence (O95977 1-384): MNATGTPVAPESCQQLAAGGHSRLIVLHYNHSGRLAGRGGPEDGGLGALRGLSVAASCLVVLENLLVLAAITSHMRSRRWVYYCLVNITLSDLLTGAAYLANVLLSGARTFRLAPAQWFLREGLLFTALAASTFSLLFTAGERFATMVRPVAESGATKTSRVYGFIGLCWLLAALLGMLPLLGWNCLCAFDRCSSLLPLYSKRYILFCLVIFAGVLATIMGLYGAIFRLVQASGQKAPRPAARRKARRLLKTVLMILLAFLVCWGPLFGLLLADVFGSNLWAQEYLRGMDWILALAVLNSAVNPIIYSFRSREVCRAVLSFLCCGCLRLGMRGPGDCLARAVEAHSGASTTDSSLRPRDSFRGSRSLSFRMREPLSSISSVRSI

recombinant human S1PR5 = recombinant human S1PR5 (Homo sapiens, UniProt Q9H228); assay: [32P]S1P competitive binding assay, S1PR5; conditions: read-out: IC50 S1PR5; competition against [32P]S1P, recombinant human S1PR5 membranes; mean ± SD
recombinant human S1PR5, sequence (Q9H228 whole entry): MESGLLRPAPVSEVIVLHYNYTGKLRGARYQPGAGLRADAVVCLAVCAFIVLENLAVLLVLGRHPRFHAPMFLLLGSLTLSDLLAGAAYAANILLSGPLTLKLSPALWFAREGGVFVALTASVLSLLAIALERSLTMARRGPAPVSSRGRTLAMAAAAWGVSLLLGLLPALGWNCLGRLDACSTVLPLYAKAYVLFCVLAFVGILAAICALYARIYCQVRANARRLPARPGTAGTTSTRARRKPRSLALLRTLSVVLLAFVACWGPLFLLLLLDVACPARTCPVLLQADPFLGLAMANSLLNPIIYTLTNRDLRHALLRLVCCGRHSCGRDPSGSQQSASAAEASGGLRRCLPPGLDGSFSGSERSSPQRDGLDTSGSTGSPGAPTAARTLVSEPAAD

[1] = read-out: IC50 S1PR1, competition against [32P]S1P, cell membranes expressing recombinant human S1PR1, mean ± SD, at least 3 independent experiments in duplicate

recombinant human S1PR1, sequence (P21453 whole entry): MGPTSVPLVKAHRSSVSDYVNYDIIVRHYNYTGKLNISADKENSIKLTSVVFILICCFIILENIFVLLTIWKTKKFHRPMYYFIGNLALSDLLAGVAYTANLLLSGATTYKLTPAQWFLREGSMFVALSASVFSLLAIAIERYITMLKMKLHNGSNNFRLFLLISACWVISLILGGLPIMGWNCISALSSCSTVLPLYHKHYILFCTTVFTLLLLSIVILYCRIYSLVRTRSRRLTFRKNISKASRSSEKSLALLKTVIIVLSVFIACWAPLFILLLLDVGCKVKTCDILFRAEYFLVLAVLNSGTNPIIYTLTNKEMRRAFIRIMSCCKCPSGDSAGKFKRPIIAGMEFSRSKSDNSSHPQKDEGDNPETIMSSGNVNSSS

SMILES: OCC(O)COCc1ccc(-c2noc(-c3ccc(OCCF)c(C(F)(F)F)c3)n2)cc1 (racemic) [(±)-20b, (±)-3-((4-(5-(4-(2-Fluoroethoxy)-3-(trifluoromethyl)phenyl)-1,2,4-oxadiazol-3-yl)benzyl)oxy)propane-1,2-diol]
IC50 (recombinant human S1PR1; [1]): 23.8 nM

SMILES: OCC(O)c1ccc(-c2noc(-c3ccc(OCCF)c(C(F)(F)F)c3)n2)cc1 (racemic) [(±)-24, (±)-1-(4-(5-(4-(2-Fluoroethoxy)-3-(trifluoromethyl)phenyl)-1,2,4-oxadiazol-3-yl)phenyl)ethane-1,2-diol]
IC50 (recombinant human S1PR1; [1]): < 20 nM
IC50 (recombinant human S1PR3; read-out: IC50 S1PR3, competition against [32P]S1P, recombinant human S1PR3 membranes, mean ± SD): > 1000 nM
IC50 (recombinant human S1PR2; read-out: IC50 S1PR2, competition against [32P]S1P, recombinant human S1PR2 membranes, mean ± SD): > 1000 nM
IC50 (recombinant human S1PR4): > 1000 nM
IC50 (recombinant human S1PR5): > 1000 nM

SMILES: OCCNCc1ccc(-c2noc(-c3ccc(OCCF)c(C(F)(F)F)c3)n2)cc1 [13d, 2-((4-(5-(4-(2-Fluoroethoxy)-3-(trifluoromethyl)phenyl)-1,2,4-oxadiazol-3-yl)benzyl)amino)ethan-1-ol]
IC50 (recombinant human S1PR1): 48.2 nM

SMILES: OCc1ccc(-c2noc(-c3ccc(OCCF)cc3)n2)cc1 [10c, (4-(5-(4-(2-Fluoroethoxy)phenyl)-1,2,4-oxadiazol-3-yl)-phenyl)-methanol]
IC50 (recombinant human S1PR1): > 1000 nM

SMILES: CN(Cc1ccc(-c2noc(-c3ccc(OCCF)c(C(F)(F)F)c3)n2)cc1)CC(O)CO (racemic) [(±)-13a, (±)-3-((4-(5-(4-(2-Fluoroethoxy)-3-(trifluoromethyl)phenyl)-1,2,4-oxadiazol-3-yl)benzyl)(methyl)amino)propane-1,2-diol]
IC50 (recombinant human S1PR1; [1]): 39.9 nM

SMILES: CN(CCO)Cc1ccc(-c2noc(-c3ccc(OCCF)c(C(F)(F)F)c3)n2)cc1 [13b, 2-((4-(5-(4-(2-Fluoroethoxy)-3-(trifluoromethyl)phenyl)-1,2,4-oxadiazol-3-yl)benzyl)(methyl)amino)ethan-1-ol]
IC50 (recombinant human S1PR1): 38 nM

SMILES: N#Cc1cc(-c2nc(-c3ccc(CO)cc3)no2)ccc1OCCF [10b, 2-(2-Fluoroethoxy)-5-(3-(4-(hydroxymethyl)phenyl)-1,2,4-oxadiazol-5-yl)benzonitrile]
fold decrease of S1PR1 binding potency compared to 10a (recombinant human S1PR1): 2.3 fold

Further lines, results first:

IC50 (recombinant human S1PR1): 56.6 nM
SMILES: OCCOc1ccc(-c2noc(-c3ccc(OCCF)c(C(F)(F)F)c3)n2)cc1 [20a, 2-(4-(5-(4-(2-Fluoroethoxy)-3-(trifluoromethyl)phenyl)-1,2,4-oxadiazol-3-yl)phenoxy)ethan-1-ol]

IC50 (recombinant human S1PR3): > 1000 nM
IC50 (recombinant human S1PR2): > 1000 nM
SMILES: OCCOCCOCc1ccc(-c2noc(-c3ccc(OCCF)c(C(F)(F)F)c3)n2)cc1 [17b, 2-(2-((4-(5-(4-(2-Fluoroethoxy)-3-(trifluoromethyl)phenyl)-1,2,4-oxadiazol-3-yl)benzyl)oxy)ethoxy)ethan-1-ol]

IC50 (recombinant human S1PR3): > 1000 nM
IC50 (recombinant human S1PR2): > 1000 nM
SMILES: OCc1ccc(-c2noc(-c3ccc(OCCF)c(C(F)(F)F)c3)n2)cc1 [10a, (4-(5-(4-(2-Fluoroethoxy)-3-(trifluoromethyl)phenyl)-1,2,4-oxadiazol-3-yl)phenyl)methanol]

IC50 (recombinant human S1PR3): > 1000 nM
IC50 (recombinant human S1PR2): > 1000 nM
SMILES: OCCOCc1ccc(-c2noc(-c3ccc(OCCF)c(C(F)(F)F)c3)n2)cc1 [17a, 2-((4-(5-(4-(2-Fluoroethoxy)-3-(trifluoromethyl)phenyl)-1,2,4-oxadiazol-3-yl)benzyl)oxy)ethan-1-ol]

fold decrease of S1PR1 binding potency compared to 10a (recombinant human S1PR1): approximately 16 fold
SMILES: OCCOCCOCCOCc1ccc(-c2noc(-c3ccc(OCCF)c(C(F)(F)F)c3)n2)cc1 [17c, 2-(2-(2-((4-(5-(4-(2-Fluoroethoxy)-3-(trifluoromethyl)phenyl)-1,2,4-oxadiazol-3-yl)benzyl)oxy)ethoxy)ethoxy)ethan-1-ol]
